Measurements published in ChEMBL document CHEMBL4507284, “Data for DCP probe BI-1230” (2021).

Columns and labels:
[1] = biological target: Disintegrin and metalloproteinase domain-containing protein 17 (Homo sapiens) (UniProt P78536); experiment: TACE (h) Eurofins-Cerep enzyme and uptake assay; conditions: Compound concentration 10.0 uM
[2] = biological target: Angiotensin-converting enzyme (Homo sapiens) (UniProt P12821); experiment: ACE (h) Eurofins-Cerep enzyme and uptake assay; conditions: Compound concentration 10.0 uM
Angiotensin-converting enzyme (Homo sapiens), sequence (P12821 whole entry): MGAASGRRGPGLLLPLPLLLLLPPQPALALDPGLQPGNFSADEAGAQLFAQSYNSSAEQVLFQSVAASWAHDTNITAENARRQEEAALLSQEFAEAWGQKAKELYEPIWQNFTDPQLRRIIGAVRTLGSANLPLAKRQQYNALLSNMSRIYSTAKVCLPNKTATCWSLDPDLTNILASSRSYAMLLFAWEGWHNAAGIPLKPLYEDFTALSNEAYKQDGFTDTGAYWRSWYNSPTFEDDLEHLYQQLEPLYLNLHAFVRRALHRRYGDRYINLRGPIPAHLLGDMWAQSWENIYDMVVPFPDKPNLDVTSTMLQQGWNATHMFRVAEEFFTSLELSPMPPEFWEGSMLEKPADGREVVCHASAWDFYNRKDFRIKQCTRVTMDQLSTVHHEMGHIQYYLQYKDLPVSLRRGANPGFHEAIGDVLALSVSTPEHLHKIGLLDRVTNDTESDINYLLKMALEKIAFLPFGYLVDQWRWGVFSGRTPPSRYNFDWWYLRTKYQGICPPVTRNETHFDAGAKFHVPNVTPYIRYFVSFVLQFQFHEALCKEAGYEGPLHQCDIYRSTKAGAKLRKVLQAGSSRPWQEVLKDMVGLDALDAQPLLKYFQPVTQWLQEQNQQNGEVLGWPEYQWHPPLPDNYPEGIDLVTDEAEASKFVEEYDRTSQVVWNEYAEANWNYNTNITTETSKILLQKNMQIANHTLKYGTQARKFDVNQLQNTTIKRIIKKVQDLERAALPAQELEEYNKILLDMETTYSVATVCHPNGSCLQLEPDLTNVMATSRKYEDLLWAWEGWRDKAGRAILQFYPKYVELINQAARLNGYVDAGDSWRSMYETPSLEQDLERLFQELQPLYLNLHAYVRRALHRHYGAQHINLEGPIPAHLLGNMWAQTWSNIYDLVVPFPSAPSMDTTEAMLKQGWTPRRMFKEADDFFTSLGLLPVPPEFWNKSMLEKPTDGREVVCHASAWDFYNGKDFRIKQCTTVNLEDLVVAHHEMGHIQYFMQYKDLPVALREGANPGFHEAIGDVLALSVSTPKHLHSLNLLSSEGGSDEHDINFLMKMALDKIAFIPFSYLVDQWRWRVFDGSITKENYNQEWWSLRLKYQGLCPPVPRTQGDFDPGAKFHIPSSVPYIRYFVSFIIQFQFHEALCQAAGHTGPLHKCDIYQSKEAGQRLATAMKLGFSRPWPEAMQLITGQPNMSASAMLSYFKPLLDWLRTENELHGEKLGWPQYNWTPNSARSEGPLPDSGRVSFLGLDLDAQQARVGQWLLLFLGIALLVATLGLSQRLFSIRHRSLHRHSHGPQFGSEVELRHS

[3] = biological target: Macrophage metalloelastase (Homo sapiens) (UniProt P39900); experiment: MMP-12 (h) Eurofins-Cerep enzyme and uptake assay; conditions: Compound concentration 10.0 uM
[4] = biological target: Matrilysin (Homo sapiens) (UniProt P09237); experiment: MMP-7 (h) Eurofins-Cerep enzyme and uptake assay; conditions: Compound concentration 10.0 uM
Chymase (Homo sapiens) = Chymase (Homo sapiens) (UniProt P23946); experiment: Chymase (h) Eurofins-Cerep enzyme and uptake assay; conditions: Compound concentration 10.0 uM
Chymase (Homo sapiens), sequence (P23946 whole entry): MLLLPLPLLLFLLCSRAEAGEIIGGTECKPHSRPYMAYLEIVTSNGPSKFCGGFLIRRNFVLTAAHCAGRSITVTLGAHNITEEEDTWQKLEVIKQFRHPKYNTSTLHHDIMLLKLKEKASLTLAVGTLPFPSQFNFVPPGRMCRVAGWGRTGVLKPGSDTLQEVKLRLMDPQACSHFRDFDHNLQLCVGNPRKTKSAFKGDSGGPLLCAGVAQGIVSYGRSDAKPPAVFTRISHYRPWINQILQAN

[5] = biological target: Sodium-dependent dopamine transporter (Homo sapiens) (UniProt Q01959); conditions: Compound concentration 10.0 uM
Caspase-6 (Homo sapiens) = Caspase-6 (Homo sapiens) (UniProt P55212); experiment: Caspase-6 (h) Eurofins-Cerep enzyme and uptake assay; conditions: Compound concentration 10.0 uM
[6] = system: Tyrosine-protein kinase ABL1 (Homo sapiens), P00519 [F317L]; conditions: Compound concentration 1000.0 nM
Tyrosine-protein kinase ABL1 (Homo sapiens), P00519 [F317L], sequence (P00519 whole entry F317L): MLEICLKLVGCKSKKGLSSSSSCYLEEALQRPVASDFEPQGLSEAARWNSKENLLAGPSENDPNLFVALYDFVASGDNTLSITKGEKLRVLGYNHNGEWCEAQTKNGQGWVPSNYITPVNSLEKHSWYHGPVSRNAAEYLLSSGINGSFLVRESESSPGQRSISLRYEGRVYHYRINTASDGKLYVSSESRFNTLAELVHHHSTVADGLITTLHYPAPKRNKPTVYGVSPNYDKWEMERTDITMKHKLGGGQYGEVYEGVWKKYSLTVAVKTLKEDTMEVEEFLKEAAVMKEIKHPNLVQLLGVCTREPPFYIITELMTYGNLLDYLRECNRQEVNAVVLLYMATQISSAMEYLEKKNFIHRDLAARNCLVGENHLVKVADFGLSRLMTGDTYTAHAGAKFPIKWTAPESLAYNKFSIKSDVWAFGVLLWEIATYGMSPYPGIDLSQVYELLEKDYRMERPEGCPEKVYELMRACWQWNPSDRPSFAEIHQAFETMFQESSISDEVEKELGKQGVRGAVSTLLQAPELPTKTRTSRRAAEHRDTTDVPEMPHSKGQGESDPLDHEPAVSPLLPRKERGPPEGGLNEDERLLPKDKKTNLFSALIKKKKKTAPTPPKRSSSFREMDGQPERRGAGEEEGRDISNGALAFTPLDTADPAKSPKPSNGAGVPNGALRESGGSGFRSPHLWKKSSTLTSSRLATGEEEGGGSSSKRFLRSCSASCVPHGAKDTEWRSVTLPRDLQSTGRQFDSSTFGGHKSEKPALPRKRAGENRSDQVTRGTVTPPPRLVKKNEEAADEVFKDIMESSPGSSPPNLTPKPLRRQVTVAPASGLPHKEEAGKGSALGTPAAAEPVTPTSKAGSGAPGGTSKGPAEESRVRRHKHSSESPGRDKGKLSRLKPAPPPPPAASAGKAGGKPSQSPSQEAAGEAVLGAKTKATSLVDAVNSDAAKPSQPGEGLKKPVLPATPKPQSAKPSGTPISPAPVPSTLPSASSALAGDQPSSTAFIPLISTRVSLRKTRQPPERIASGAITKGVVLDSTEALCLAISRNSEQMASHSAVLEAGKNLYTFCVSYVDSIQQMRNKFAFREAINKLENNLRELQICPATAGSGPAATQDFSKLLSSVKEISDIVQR

[7] = biological target: Neutrophil elastase (Homo sapiens) (UniProt P08246); experiment: Elastase (h) Eurofins-Cerep enzyme and uptake assay; conditions: Compound concentration 10.0 uM
[8] = biological target: Beta-1 adrenergic receptor (Homo sapiens) (UniProt P08588); conditions: Compound concentration 10.0 uM
Caspase-3 (Homo sapiens) = Caspase-3 (Homo sapiens) (UniProt P42574); experiment: Caspase-3 (h) Eurofins-Cerep enzyme and uptake assay; conditions: Compound concentration 10.0 uM
Caspase-8 (Homo sapiens) = Caspase-8 (Homo sapiens) (UniProt Q14790); experiment: Caspase-8 (h) Eurofins-Cerep enzyme and uptake assay; conditions: Compound concentration 10.0 uM
[9] = biological target: Interstitial collagenase (Homo sapiens) (UniProt P03956); experiment: MMP-1 (h) Eurofins-Cerep enzyme and uptake assay; conditions: Compound concentration 10.0 uM
[10] = biological target: Tyrosine-protein kinase Fyn (Homo sapiens) (UniProt P06241); conditions: Compound concentration 1000.0 nM
Tyrosine-protein kinase Fyn (Homo sapiens), sequence (P06241 2-537 limits assumed): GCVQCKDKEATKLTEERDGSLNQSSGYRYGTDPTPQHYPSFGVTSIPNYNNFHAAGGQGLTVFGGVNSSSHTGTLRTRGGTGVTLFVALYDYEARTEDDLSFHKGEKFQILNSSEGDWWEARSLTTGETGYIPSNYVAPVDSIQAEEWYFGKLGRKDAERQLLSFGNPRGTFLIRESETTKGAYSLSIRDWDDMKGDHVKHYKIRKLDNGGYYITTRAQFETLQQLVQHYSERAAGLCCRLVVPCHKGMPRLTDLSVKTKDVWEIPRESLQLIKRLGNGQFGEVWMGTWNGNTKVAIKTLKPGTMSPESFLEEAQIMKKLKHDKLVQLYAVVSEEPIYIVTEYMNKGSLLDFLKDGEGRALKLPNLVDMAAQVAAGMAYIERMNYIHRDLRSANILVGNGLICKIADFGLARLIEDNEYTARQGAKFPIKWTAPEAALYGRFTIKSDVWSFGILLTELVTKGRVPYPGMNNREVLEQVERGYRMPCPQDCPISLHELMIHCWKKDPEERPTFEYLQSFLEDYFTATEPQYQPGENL

[11] = biological target: Stromelysin-1 (Homo sapiens) (UniProt P08254); experiment: MMP-3 (h) Eurofins-Cerep enzyme and uptake assay; conditions: Compound concentration 10.0 uM
Stromelysin-1 (Homo sapiens), sequence (P08254 100-477 limits assumed): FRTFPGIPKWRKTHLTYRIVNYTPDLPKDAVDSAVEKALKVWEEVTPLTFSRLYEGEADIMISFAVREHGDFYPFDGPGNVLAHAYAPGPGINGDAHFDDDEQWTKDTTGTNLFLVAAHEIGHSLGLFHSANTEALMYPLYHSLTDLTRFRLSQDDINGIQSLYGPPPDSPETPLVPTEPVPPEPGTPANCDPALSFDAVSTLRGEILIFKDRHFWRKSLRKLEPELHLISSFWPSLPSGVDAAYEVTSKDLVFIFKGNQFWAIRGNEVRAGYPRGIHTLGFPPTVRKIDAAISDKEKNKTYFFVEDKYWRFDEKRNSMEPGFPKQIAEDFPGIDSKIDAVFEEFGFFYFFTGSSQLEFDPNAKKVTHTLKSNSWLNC

Caspase-1 (Homo sapiens) = Caspase-1 (Homo sapiens) (UniProt P29466); experiment: Caspase-1 (h) Eurofins-Cerep enzyme and uptake assay; conditions: Compound concentration 10.0 uM
Caspase-7 (Homo sapiens) = Caspase-7 (Homo sapiens) (UniProt P55210); experiment: Caspase-7 (h) Eurofins-Cerep enzyme and uptake assay; conditions: Compound concentration 10.0 uM
[12] = biological target: Dipeptidyl peptidase 4 (Homo sapiens) (UniProt P27487); experiment: Dipeptidyl peptidase IV (h) (DPP-IV) Eurofins-Cerep enzyme and uptake assay; conditions: Compound concentration 10.0 uM
[13] = biological target: Procathepsin L (Homo sapiens) (UniProt P07711); experiment: Cathepsin L (h) Eurofins-Cerep enzyme and uptake assay; conditions: Compound concentration 10.0 uM
Procathepsin L (Homo sapiens), sequence (P07711 114-333 limits assumed): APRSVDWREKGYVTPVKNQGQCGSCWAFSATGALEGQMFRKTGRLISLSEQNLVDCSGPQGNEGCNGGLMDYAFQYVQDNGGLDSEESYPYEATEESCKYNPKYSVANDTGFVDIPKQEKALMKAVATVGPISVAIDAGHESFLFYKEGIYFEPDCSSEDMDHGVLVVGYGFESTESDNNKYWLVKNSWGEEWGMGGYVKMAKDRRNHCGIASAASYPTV

[14] = biological target: Cathepsin D (Homo sapiens) (UniProt P07339); experiment: Cathepsin D (h) Eurofins-Cerep enzyme and uptake assay; conditions: Compound concentration 10.0 uM
[15] = biological target: Beta-3 adrenergic receptor (Homo sapiens, UniProt P13945); experiment: GPCRScan assay: inhibition of Beta3; set-up: radioligand conc. used [nm] 0.2 – 0.5, parental cells HEK Flp-In
[16] = biological target: Cathepsin Z (Homo sapiens) (UniProt Q9UBR2); experiment: Cathepsin X (h) Eurofins-Cerep enzyme and uptake assay; conditions: Compound concentration 10.0 uM
[17] = biological target: Cathepsin B (Homo sapiens) (UniProt P07858); experiment: Cathepsin B (h) Eurofins-Cerep enzyme and uptake assay; conditions: Compound concentration 10.0 uM
[18] = biological target: Matrix metalloproteinase-14 (Homo sapiens) (UniProt P50281); experiment: MT1-MMP (h) (MMP-14) Eurofins-Cerep enzyme and uptake assay; conditions: Compound concentration 10.0 uM
[19] = biological target: D(2) dopamine receptor (Homo sapiens) (UniProt P14416); conditions: Compound concentration 10.0 uM
[20] = biological target: Angiotensin-converting enzyme 2 (Homo sapiens) (UniProt Q9BYF1); experiment: ACE-2 (h) Eurofins-Cerep enzyme and uptake assay; conditions: Compound concentration 10.0 uM
[21] = biological target: Collagenase 3 (Homo sapiens) (UniProt P45452); experiment: MMP-13 (h) Eurofins-Cerep enzyme and uptake assay; conditions: Compound concentration 10.0 uM
Caspase-2 (Homo sapiens) = Caspase-2 (Homo sapiens) (UniProt P42575); experiment: Caspase-2 (h) Eurofins-Cerep enzyme and uptake assay; conditions: Compound concentration 10.0 uM
[22] = biological target: Protease (Human immunodeficiency virus 1) (UniProt Q9YQ12); experiment: HIV-1 protease Eurofins-Cerep enzyme and uptake assay; conditions: Compound concentration 10.0 uM
[23] = biological target: 72 kDa type IV collagenase (Homo sapiens) (UniProt P08253); experiment: MMP-2 (h) Eurofins-Cerep enzyme and uptake assay; conditions: Compound concentration 10.0 uM
[24] = biological target: Muscarinic acetylcholine receptor M5 (Homo sapiens) (UniProt P08912); conditions: Compound concentration 10.0 uM
[25] = biological target: Cathepsin G (Homo sapiens) (UniProt P08311); experiment: Cathepsin G (h) Eurofins-Cerep enzyme and uptake assay; conditions: Compound concentration 10.0 uM
[26] = biological target: Prothrombin (Homo sapiens) (UniProt P00734); experiment: Thrombin(h) Eurofins-Cerep enzyme and uptake assay; conditions: Compound concentration 10.0 uM
[27] = biological target: Proteinase-activated receptor 1 (Homo sapiens) (UniProt P25116); experiment: PAR1 (h) Eurofins-Cerep Cellular and Nuclear Receptor Functional Assays; conditions: Compound concentration 10.0 uM
Proteinase-activated receptor 1 (Homo sapiens), sequence (P25116 whole entry): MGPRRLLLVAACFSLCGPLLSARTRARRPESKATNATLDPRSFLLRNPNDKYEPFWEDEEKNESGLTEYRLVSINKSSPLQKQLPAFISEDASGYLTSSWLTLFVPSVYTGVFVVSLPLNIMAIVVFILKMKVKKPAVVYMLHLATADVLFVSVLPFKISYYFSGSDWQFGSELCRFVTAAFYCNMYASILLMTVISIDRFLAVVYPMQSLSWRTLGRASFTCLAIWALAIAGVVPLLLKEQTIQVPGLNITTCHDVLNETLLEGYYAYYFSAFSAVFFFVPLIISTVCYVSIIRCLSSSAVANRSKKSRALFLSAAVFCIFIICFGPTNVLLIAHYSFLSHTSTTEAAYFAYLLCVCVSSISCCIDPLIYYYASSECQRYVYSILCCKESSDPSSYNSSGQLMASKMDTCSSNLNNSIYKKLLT

[28] = biological target: Serine/threonine-protein kinase pim-3 (Homo sapiens) (UniProt Q86V86); conditions: Compound concentration 1000.0 nM
[29] = biological target: Caspase-10 (Homo sapiens) (UniProt Q92851); experiment: Caspase-10 (h) Eurofins-Cerep enzyme and uptake assay; conditions: Compound concentration 10.0 uM
[30] = biological target: 5-hydroxytryptamine receptor 1A (Homo sapiens) (UniProt P08908); conditions: Compound concentration 10.0 uM
[31] = biological target: Pro-cathepsin H (Homo sapiens) (UniProt P09668); experiment: Cathepsin H (h) Eurofins-Cerep enzyme and uptake assay; conditions: Compound concentration 10.0 uM
[32] = biological target: Alpha-2B adrenergic receptor (Homo sapiens, UniProt P18089); experiment: GPCRScan assay: inhibition of Alpha2B; set-up: radioligand conc. used [nm] 1.5 – 2.0, parental cells HEKT
Alpha-2B adrenergic receptor, sequence (P18089 whole entry): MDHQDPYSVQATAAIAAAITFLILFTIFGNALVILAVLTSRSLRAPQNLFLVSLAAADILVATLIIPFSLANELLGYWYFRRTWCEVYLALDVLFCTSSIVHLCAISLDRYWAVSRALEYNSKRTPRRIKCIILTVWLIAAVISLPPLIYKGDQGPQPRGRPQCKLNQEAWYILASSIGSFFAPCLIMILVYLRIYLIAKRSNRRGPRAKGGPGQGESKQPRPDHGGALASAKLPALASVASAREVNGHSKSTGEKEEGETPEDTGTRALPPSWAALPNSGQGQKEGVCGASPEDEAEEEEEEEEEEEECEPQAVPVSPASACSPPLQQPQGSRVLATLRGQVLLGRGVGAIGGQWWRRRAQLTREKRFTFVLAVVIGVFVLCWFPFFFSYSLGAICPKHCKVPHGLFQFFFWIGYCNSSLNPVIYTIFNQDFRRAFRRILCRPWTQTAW

Tryptase (Homo sapiens) = Tryptase (Homo sapiens) (UniProt Q9BZJ3+Q15661+Q9NRR2); experiment: Tryptase (h) Eurofins-Cerep enzyme and uptake assay; assay type: protein assay; conditions: Compound concentration 10.0 uM
[33] = biological target: 5-hydroxytryptamine receptor 6 (Homo sapiens) (UniProt P50406); conditions: Compound concentration 10.0 uM
[34] = biological target: Alpha-1B adrenergic receptor (Homo sapiens) (UniProt P35368); conditions: Compound concentration 10.0 uM
[35] = biological target: 5-hydroxytryptamine receptor 2C (Homo sapiens) (UniProt P28335); conditions: Compound concentration 10.0 uM
[36] = biological target: GABA-A receptor; anion channel (Rattus norvegicus) (UniProt O09028+P15431+P18506+P18508+P19969+P20236+P23574+P23576+P28471+P28473+P30191+P62813+P63079+P63138+Q91ZM7+Q9ES14); conditions: Compound concentration 10.0 uM
[37] = biological target: 5-hydroxytryptamine receptor 3A (Homo sapiens) (UniProt P46098); conditions: Compound concentration 10.0 uM
[38] = biological target: 5-hydroxytryptamine receptor 7 (Homo sapiens) (UniProt P34969); conditions: Compound concentration 10.0 uM
[39] = biological target: Histamine H3 receptor (Homo sapiens) (UniProt Q9Y5N1); conditions: Compound concentration 10.0 uM

Compound: COc1ccc2c(O[C@@H]3C[C@H]4C(=O)N[C@]5(C(=O)O)CC5/C=C\CCCCC[C@H](NC(=O)OC5CCCC5)C(=O)N4C3)cc(-c3csc(NC(=O)C(C)C)n3)nc2c1C (stereo partly specified) [BI 1230]
- % Inhibition of Control Values [1]: 63.7%
- % Inhibition of Control Values [2]: 2.6%
- % Inhibition of Control Values [3]: 73.8%
- % Inhibition of Control Values [4]: 23.4%
- % Inhibition of Control Values (Chymase (Homo sapiens)): 21.2%
- inhibition [5]: 17.4%
- % Inhibition of Control Values (Caspase-6 (Homo sapiens)): 10.3%
- residual activity [6]: 99%
- % Inhibition of Control Values [7]: 9.7%
- inhibition [8]: 2.05%
- % Inhibition of Control Values (Caspase-3 (Homo sapiens)): 23.8%
- % Inhibition of Control Values (Caspase-8 (Homo sapiens)): -6.2%
- % Inhibition of Control Values [9]: 23.1%
- residual activity [10]: 100%
- % Inhibition of Control Values [11]: 28%
- % Inhibition of Control Values (Caspase-1 (Homo sapiens)): -23.1%
- % Inhibition of Control Values (Caspase-7 (Homo sapiens)): 40.6%
- % Inhibition of Control Values [12]: 4%
- % Inhibition of Control Values [13]: 13.6%
- % Inhibition of Control Values [14]: -2.2%
- Ki [15]: 3.62 µM
- % Inhibition of Control Values [16]: 12.3%
- % Inhibition of Control Values [17]: -1.7%
- % Inhibition of Control Values [18]: 59.2%
- inhibition [19]: 4.88%
- % Inhibition of Control Values [20]: -54.7%
- % Inhibition of Control Values [21]: 281%
- % Inhibition of Control Values (Caspase-2 (Homo sapiens)): 44.5%
- % Inhibition of Control Values [22]: 48.2%
- % Inhibition of Control Values [23]: 54.8%
- inhibition [24]: 3.15%
- % Inhibition of Control Values [25]: 63%
- % Inhibition of Control Values [26]: 3.5%
- % Inhibition of Control Agonist Response [27]: 59.6%
- % of Control Agonist Response [27]: -0.9%
- residual activity [28]: 94%
- % Inhibition of Control Values [29]: 38.2%
- inhibition [30]: -6.16%
- % Inhibition of Control Values [31]: -8.1%
- Ki [32]: 4.49 µM
- % Inhibition of Control Values (Tryptase (Homo sapiens)): 6.9%

Compound: O=C(N[C@H]1CCCCC/C=C\C2C[C@@]2(C(=O)O)NC(=O)[C@@H]2C[C@@H](Oc3ccncc3)CN2C1=O)OC1CCCC1 (stereo partly specified) [BI 1675]
- inhibition [33]: -7.71%
- inhibition [34]: -7.2%
- residual activity [6]: 100%
- inhibition [35]: 7.99%
- residual activity [10]: 100%
- inhibition [36]: -5.88%
- inhibition [37]: -8.48%
- inhibition [38]: -3.24%
- residual activity [28]: 100%
- inhibition [39]: 2.64%
